Laboratory results published in patent US5817679A, “7-Azabicyclo[2.2.1]-heptane and -heptene derivatives as cholinergic receptor ligands” (priority 1994, dated 1998).

Experiments:
[1] = Analgesic activity, Straub-Tail assay (Table 5); type: in vivo
[2] = Tail-flick assay in mice and rats (antinociception); type: in vivo; conditions: for Tail-Flick Assay ED50 % Effect After 5 min. / Tail-Flick Assay ED50 % Effect After 60 min.: (mg/kg)
Experimental: Tail-Flick Assay in Mice and Rats
Female CD-1 mice (20-25 g, Charles River Labs) and male CD rats (300-400 g, Charles River Labs) were housed in groups of two and five, respectively. Animals were given food and water ad libitum. Most studies were performed using groups of 5 animals per treatment unless otherwise noted.
Antinociceptive effects (i.e., analgesia) of test compounds in mice and rats were measured by the tail-flick test using a tail-flick analgesia meter (EMDIE Instrument Co.). A maximum latency of 10 sec was imposed if no response occurred within that time. Antinociceptive activity, measured as % MPE, was calculated as [(test-control)/(10-control)×100)].
Duration of compound and (-)-nicotine-induced antinociception was assessed in mice by measuring antinociception at 2, 5, 10, 20 min after compound (20 μg/kg, s.c.) or nicotine (5 mg/kg, s.c.).
Mice (7/group) or rats were pretreated i.v. (0.9% saline or antagonist, mecamylamine, hexamethonium, atropine, naloxone or yohimbine) 10 minutes before administration of compound or nicotine at different doses. A control response (1.5-4 sec) was determined for each animal before treatment and test latencies were assessed at 5 minutes after compound administration (5 ml/kg, s.c.) or 2 min after nicotine (5 ml/kg, s.c.).

[3] = biological target: T1, nicotinic cholinergic receptor (Rattus norvegicus, UniProt P09483+P12390); assay: Competition with [3H](-)-cytisine for binding to rat cortex (brain) receptors (Tables 7, 8); conditions: Table 8, [3H](-)-cytisine, rat brain cortex membranes; read-out: Nicotine Receptor IC50
T1 construct: A membrane fraction from rat brain cortex; tissue Harlan Laboratories; host or cells: rat brain cortex membranes
From the text: Competition with Cytisine for Binding to Rat Cortex (Brain) Receptors
[^3 H](-)-Cytisine is a nicotinic cholinergic receptor ligand that binds with high affinity to the a4b2 subtype receptor, the major subtype in rodent brain accounting for >90% of (-)-nicotine binding sites (Flores, et al., 1992; Whiting, et al., 1992). This nicotinic receptor subtype is most sensitive to (-)-nicotine compared to other receptor subtypes (Connolly, et al., 1992). Compounds that compete with cytisine for the nicotinic cholineric receptor are considered nicotine receptor agonists.
A membrane fraction from rat brain cortex (Harlan Laboratories) was prepared using an adaptation of an established method (Pabreza, et al., 1991). Compound and [^3 H]-(-)-cytisine (New England Nuclear, 42 Ci/mmol) were mixed before addition of membrane (0.5 mg protein) and incubated in glass tubes for 75 minutes on ice; total assay volume was 0.24 ml. Parallel assays to determine nonspecific binding were incubated in the presence of 10 uM (-)-nicotine (Sigma). Bound radioactivity was isolated by vacuum filtration onto glass microfiber filters (Whatman, GF-B) using millipore tubs, followed by 3×4 ml buffer wash. Filters were prerinsed with 0.5% polyethyleneimine prior to sample filtration to reduce nonspecific binding. Bound radioactivity was quantitated by scintillation counting.

[4] = Analgesic activity, Straub-Tail assay (Table 5); type: in vivo; conditions: for ED50: Straub-Tail assay
From the text: A wide variety of biological assays have been used to evaluate the ability of a compound to act as an analgesic. Any of these known assays can be used to evaluate the analgesic ability of the compounds disclosed herein. The Straub-tail reaction, which is characteristic of opiate alkaloids, has been used as an assay for opiate agonists and antagonists. The assay is described in detail in Br. J. of Pharmacol. 1969, 36, 225. Another accepted assay for analgesic activity is the hot plate analgesia assay, described in J. of Pharmacol. Exp. Therap. 1953, 107, 385. An assay for the evaluation of the ability of a compound to bind to an opiate receptor is described in Mol. Pharmacol. 1974, 10, 868.
Evaluation of Analgesic Activity
Table 5 provides the analgesic activity measured as ED50 (μg/Kg) for selected compounds disclosed herein, as determined using the Straub-Tail assay, as describe by J. Daly et al. J. Am. […] Chem. Soc. 1992, 114, 3475; T. Li, et al. Bioorganic and Medicinal Chemistry Letters 1993, 3, 2759.

[5] = biological target: T2, acetylcholine nicotinic receptor (Rattus norvegicus, UniProt P09483+P12390); assay: Nicotinic receptor binding, [3H]-NMCI radioligand, rat cortex (Table 6)
T2 construct: rat cortex as the tissue substrate; from tissue; host or cells: rat cortex
Experimental: Evaluation of Nicotinic Receptor Binding Activity
7-Aza-bicyclo[2.2.1]-heptanes and -heptenes were evaluated for their ability to bind to the acetylcholine nicotinic receptor using a standard binding assay, e.g. X. Zhang and A. Nordberg, Arch. Pharmacol., 348, 28 (1993); R. E. Middleton and J. B. Cohen, Biochemistry, 30, 6987 (1991), with nicotine sulfate as the reference compound, rat cortex as the tissue substrate, and a [^3 H]-NMCI radioligand.

[6] = system: a4b2 subtype receptor; conditions: in words; cited from earlier work
[7] = system: opiate receptors; conditions: in words; cited from earlier work
[8] = system: nicotinic cholinergic receptor; conditions: in words; cited from earlier work
[9] = opiate antagonist naloxone; cited from earlier work
[10] = Straub-Tail assay, read-out: ED50

C[N+]1(C)[C@H]2CC[C@@H]1[C@@H](c1ccc(Cl)nc1)C2 (relative stereo)
ED50 [1, 10]: 0.1 to 0.2 mg/kg

Cc1nnc(C2CC3CCC2N3C)o1 (stereo not shown) [drawing 61]
Tail-Flick Assay ED50 % Effect After 5 min. [2]: 6.7%
Tail-Flick Assay ED50 % Effect After 60 min. [2]: 24.6%

COc1ccc([C@H]2C[C@@H]3CC[C@H]2N3)cn1 (relative stereo)
ED50 [1, 10]: 0.75 mg/kg

c1ccc2nc(C3CC4CCC3N4)ccc2c1 (stereo not shown)
IC50 [3]: 0.007 µM

Clc1ccc([C@@H]2C[C@H]3CC[C@@H]2N3)cn1 [d-epibatidine]
ED50 [4]: > 0.1 mg/kg

CN1[C@H]2CC[C@@H]1[C@@H](c1ccc(Cl)nc1)C2 (relative stereo)
ED50 [1, 10]: < 0.01 mg/kg

c1cncc(C2CC3CCC2N3)c1 (stereo not shown) [drawing 55]
Inhibition % ([5]; testing level 10^-5 M): 104%
Inhibition % ([5]; testing level 10^-9 M): 103%

c1cncc(C2CC3CCC2N3)c1 (stereo not shown) [drawing 40]
ED50 [1, 10]: 10 mg/kg

N=CN1C2CCC1C(c1cccnc1)C2 (stereo not shown)
Inhibition % ([5]; testing level 10^-7 M): 103.9%
Inhibition % ([5]; testing level 10^-8 M): 71.3%

Cc1noc(C2CC3CCC2N3C)n1 (stereo not shown)
ED50 ([2]; Mus musculus, sc, Table 8): 0.23 mg/kg

Cc1cc(C2CC3CCC2N3)on1 (stereo not shown)
IC50 [3]: 0.63 µM

CN1C2CCC1C(c1ccc3ccccc3n1)C2 (stereo not shown)
IC50 [3]: 0.077 µM

ClCCN1[C@H]2CC[C@@H]1[C@@H](c1ccc(Cl)nc1)C2 (relative stereo)
ED50 [1]: ~0.1 mg/kg

Clc1ccc([C@H]2C[C@@H]3CC[C@H]2N3CCc2ccccc2)cn1 (relative stereo)
ED50 [1, 10]: < 1 mg/kg

N=CN1C2CCC1C(c1ccc(Cl)nc1)C2 (stereo not shown)
Inhibition % ([5]; testing level 10^-7 M): 104%

C[N+]1(C)C2CCC1C(c1ccc(Cl)nc1)C2 (stereo not shown)
Inhibition % ([5]; testing level 10^-5 M): 104%
Inhibition % ([5]; testing level 10^-7 M): 100%

O=c1cccc2n1C[C@@H]1CNC[C@H]2C1 [[^3 H](-)-Cytisine]
affinity for a4b2 subtype receptor [6]: high affinity

Fc1ccc([C@H]2C[C@@H]3CC[C@H]2N3)cn1 (relative stereo)
ED50 [1, 10]: ~0.05 mg/kg

c1cncc([C@H]2C[C@@H]3CC[C@H]2N3)c1 (relative stereo)
ED50 [1, 10]: 0.25 mg/kg

N=CN1[C@H]2CC[C@@H]1[C@@H](c1ccc(Cl)nc1)C2 (relative stereo)
effect in Straub-Tail assay ([4]; @ 100 (μg/Kg per column head)): 99%

Clc1ccc([C@H]2C[C@@H]3CC[C@H]2N3)cn1 (relative stereo) [drawing 50]
ED50 [4]: 0.01 mg/kg

Clc1ccc([C@H]2C[C@@H]3C=C[C@H]2N3)cn1 (relative stereo)
ED50 [1, 10]: < 1 mg/kg

Clc1ccc([C@H]2C[C@@H]3CC[C@H]2N3CC2CC2)cn1 (relative stereo)
effect in Straub-Tail assay ([4]; @ 1000 μg/Kg): 100%

Cc1nnc(C2CC3CCC2N3C)o1 (stereo not shown) [drawing 60]
Tail-Flick Assay ED50 % Effect After 5 min. [2]: -2.9%
Tail-Flick Assay ED50 % Effect After 60 min. [2]: -3.6%

Cc1cc(C2CC3CCC2N3C)on1 (stereo not shown)
IC50 [3]: 0.024 µM

CC(C)(C)Oc1ccc([C@H]2C[C@@H]3CC[C@H]2N3)cn1 (relative stereo)
ED50 [1, 10]: ~1 mg/kg

Clc1ccc([C@H]2C[C@@H]3CC[C@H]2N3)cn1 (relative stereo) [epibatidine, exo-2-(2-chloro-5-pyridyl)-7-azabicyclo[2.2.1]heptane]
affinity for opiate receptors [7]: negligible affinity
nicotinic cholinergic receptor activity [8]: nicotinic cholinergic receptor agonist
effect of naloxone on Straub-tail response [9]: not reversed by the opiate antagonist naloxone
